Data published in article PMC8578336, “Neuroprotection of retinal ganglion cells by the sigma-1 receptor agonist pridopidine in models of experimental glaucoma” (Scientific Reports, 2021).
Where a name gives a salt, the structure may show the parent alone. Read-outs that look alike come from different tables or passages of the source.

Experiments:
Kappa opioid receptor = biological target: Kappa opioid receptor; set-up: method as in PMID 16125682; conditions: cited from earlier work
human lymphoblasts [1] = conditions: 5 μM pretreatment 24 h; H2O2 0.1 mM 6 h; p < 0.0001
Experimental: (§1) ROS levels were quantified by co-staining with CellRox and DAPI. (a) Representative image and (b) quantification. […] Data is the mean ± SEM. *p < 0.05, ***p < 0.001, ****p < 0.0001 by two-way ANOVA with a Tukey’s multiple comparisons in (b), by non-parametric Mann–Whitney in (d), or Kruskal–Wallis test in (c) and (e). Full-length blots are presented in Supplementary Fig. 2.
(§2) Lymphoblasts (Corriel Institute, GM02174) were grown in RPMI medium containing 10% FBS, 2 mM L-glutamax, and 100 U/mL penicillin–streptomycin and passaged every 5–6 days. […] S1R knockdown was achieved using S1R-directed siRNA duplexes (Origene, cat no: SR426072). Transfection with Polyplus JETPRIME transfection protocol was performed 48 h before experiments. S1R knockdown was assessed by immunoblot.

[2] = tested on: retinal ganglion cells (RGCs); conditions: for RGC loss (%): OD vs OS eye, mean ± SEM
Experimental: Hypertonic saline injection (HSI) was performed on day 0 and day 7 into the episcleral veins of the right eye of pigmented Brown Norway rats in order to create a sustained increase of IOP.
Over the course of the study, animals were clinically evaluated daily, and IOP and body weight measured weekly (Fig. 1a).
The number of RGCs was quantified using immunofluorescent staining for the RGC marker brain-specific homeobox/POU domain protein 3A (Brn-3a), followed by image analysis. RGCs were counted in one medial and one distal area in each retinal quadrant, up to eight regions per retina (Fig. 1c, Supp Table 4). The percent of RGC loss was calculated by comparing the number of RGC counts per retina in the OD eye to that in the OS eye. […] Rats were sedated with ketamine and xylazine (40–80 and 5–10 mg/kg, respectively), kept warm and eyes moist to avoid desiccation during the procedure. Eye surface was treated with erythromycin (0.5%). On Days 0 and 7, hypertonic saline solution (250 μL, NaCl, 1.8–2.0 M) was injected into the limbal vascular plexus via different episcleral veins in the OHT eye.
Eyes were immediately enucleated following CO2 euthanasia and fixed in paraformaldehyde (PFA, 4%) at 4 °C for 24 h, then dissected in PBS. Retinas were permeabilized in PBS + 0.5% Triton X-100 for 15 min, frozen at − 80 °C for 15 min, then rinsed in PBS-0.5% Triton. […] Four radial cuts were made in the retina and it was flat-mounted. Two regions of interest (medial and distal) were acquired in each quadrant with fluorescent microscopy, and RGCs counted using ImageJ.

[3] = tested on: mouse striatal neuronal cultures; conditions: 1 μM, 24 h
Experimental: Previous studies have shown a regulatory role of the S1R in mitochondrial function in retinal ganglion cells under stress[36]–[39]. […] (b) Quantification of OCR rate. […] Mitochondrial membrane potential was measured in isolated striatal mitochondria using Rhodamine123 (d) and quantified (e). […] Data are the mean ± SEM. All experiments were run in triplicates. *p < 0.05, **p < 0.01 by non-parametric Kruskal–Wallis test or Mann–Whitney test (in e).
Striatal neurons were isolated as previously described[78] from embryos at gestational day 16–17. […] Pridopidine was added for 24 h.

S1R = conditions: cited from earlier work
optic nerve axons = conditions: for Loss of optic nerve axons vs. control eye (difference): 14 days; for Number of optic nerve axons, mean: 125/55 criterion
Experimental: (§3) The laser coagulation (LC) model of experimental glaucoma was utilized in Wistar rats. Additional benefits of using this model are avoiding idiosyncratic features inherent to a single model and increasing the likelihood of future translatability to human glaucoma[28],[29]. Both models utilize elevation of IOP, but to different degrees and with different time courses. Unilateral induction of IOP elevation was performed twice, at day 0 and day 7. […] IOP was measured at baseline, and after laser photocoagulation on days 1, 4, 7, 8, and 14 (Fig. 3a). At the end of the study, RGC numbers were assessed by immunostaining (Fig. 3b).
Neuroprotective preservation of visual function in glaucoma and other optic neuropathies depends not only on preservation of cell bodies, but also on maintaining connectivity between the eye and the brain. Connectivity is preserved by protecting RGC axons[31]–[33], i.e. axoprotection. To study this, the number of optic nerve axons per optic nerve area was compared between different treatment groups (Fig. 4a,b). […] Compounds were administered daily by oral gavage. On day 14 rats were sacrificed by transcardial perfusion, first with 0.9% NaCl solution, then with 4% PFA in 0.1 M phosphate buffer, pH 7.4. Eyes and optic nerves were collected for immunohistochemical analysis.
Optic nerves were postfixed in 4% PFA (in 0.1 M phosphate buffer, pH 7.4), placed in 1% osmium, dehydrated in ascending alcohol concentrations, and placed in 1% uranyl acetate in 100% ethanol for 1 h[76],[77]. Optic nerves were embedded in epoxy resin mixture at 60 °C for 48 h and 1 µm sections prepared. Axon number was estimated using stereology, as previously described.

[4] = tested on: retinal ganglion cells (RGCs); conditions: for Loss of RBPMS-positive RGCs, lasered vs control eye (difference): 14 days; for Number of RGCs per retinal area, mean: 125/55 criterion
Experimental: as §3
The number of RGCs was quantified using immunofluorescent staining for RNA-binding protein with multiple splicing (RBPMS), an RGC-specific marker, followed by stereological analysis of the entire retina[30] (Fig. 3c).
IOP was measured with a TonoLab tonometer.
Compounds were administered daily by oral gavage. On day 14 rats were sacrificed by transcardial perfusion, first with 0.9% NaCl solution, then with 4% PFA in 0.1 M phosphate buffer, pH 7.4. Eyes and optic nerves were collected for immunohistochemical analysis.
Retinal flat-mounts were immunostained with rabbit anti-RBPMS (PhosphoSolutions) and DAPI nuclear stain. Total number of RBPMS-positive cells was estimated using stereology as previously described.

human lymphoblasts [5] = conditions: 5 µM, 24 h
Experimental: as §1
Mitochondrial function was then assessed with the MMP-dependent probe TMRE (tetramethylrhodamine ethyl ester).
as §2

striatal neurons = conditions: 1 μM, 24 h; NMDA 10 µM + glycine 20 µM 15 min; p = 0.0072
Experimental: (§4) (b) Quantification of OCR rate. […] Mitochondrial membrane potential was measured in isolated striatal mitochondria using Rhodamine123 (d) and quantified (e). […] Data are the mean ± SEM. All experiments were run in triplicates. *p < 0.05, **p < 0.01 by non-parametric Kruskal–Wallis test or Mann–Whitney test (in e).
Striatal neurons were isolated as previously described[78] from embryos at gestational day 16–17.

[6] = tested on: isolated striatal mitochondria; conditions: 30 mg/kg daily for 45 days; p = 0.0013
Experimental: as §4

[7] = biological target: empopamil binding protein (EBP); set-up: method as in PMID 11377189; conditions: cited from earlier work

For CC(C)=CCN1CC[C@]2(C)c3cc(O)ccc3C[C@H]1[C@H]2C [PTZ, (+)pentazocine], the Ki (Kappa opioid receptor) is listed as 2.2 nM.

With CCCN1CCC(c2cccc(S(C)(=O)=O)c2)CC1 [Pridopidine] the “H2O2-induced ROS production (CellRox staining)” value (human lymphoblasts [1]) was “significantly ameliorated”, the “RGC loss (%)” value ([2]; 3 mg/kg daily oral gavage day 1-41) was 25 ± 7% and the “Mean RGC count/animal” value ([2]; 3 mg/kg, OD eye) was 105.25. The “Mean RGC count/animal” value ([2]; 3 mg/kg, OS eye) was 144.75, the “RGC loss (%)” value ([2]; 30 mg/kg daily oral gavage day 1-41) was 21 ± 6% and the “Mean RGC count/animal” value ([2]; 30 mg/kg, OD eye) was 122.78. The “Mean RGC count/animal” value ([2]; 30 mg/kg, OS eye) was 158.56, the “RGC neuroprotection compared to vehicle control” value ([2]; 30 mg/kg, p = 0.019) was 50% and the “RGC loss (%)” value ([2]; 60 mg/kg daily oral gavage day 1-41) was 7 ± 9%. For the same compound, the “Mean RGC count/animal” value ([2]; 60 mg/kg, OD eye) was 116.50, the “Mean RGC count/animal” value ([2]; 60 mg/kg, OS eye) was 130.40 and the “RGC neuroprotection compared to vehicle control” value ([2]; 60 mg/kg, p = 0.005) was 83%. The ATP production ([3]; p = 0.0015) was “significantly increases”, the Maximal mitochondrial respiration ([3]; p = 0.0061) was “significantly increases” and the Basal mitochondrial respiration ([3]; p = 0.0082) was “significantly increases”. The Ki (S1R) was 57 nM, the “Axoprotection of optic nerves compared to the vehicle group” value (optic nerve axons; 3 mg/kg) was 69% and the “Loss of optic nerve axons vs. control eye (difference)” value (optic nerve axons; 3 mg/kg daily oral, p = 0.006) was 8.6%. The “Number of optic nerve axons, mean” value (optic nerve axons; 3 mg/kg, control eye) was 394, the “Number of optic nerve axons, mean” value (optic nerve axons; 3 mg/kg, lasered eye) was 358 and the “Axoprotection of optic nerves compared to the vehicle group” value (optic nerve axons; 30 mg/kg) was 45%. The “Loss of optic nerve axons vs. control eye (difference)” value (optic nerve axons; 30 mg/kg daily oral, p = 0.04) was 15%, the “Number of optic nerve axons, mean” value (optic nerve axons; 30 mg/kg, control eye) was 433 and the “Number of optic nerve axons, mean” value (optic nerve axons; 30 mg/kg, lasered eye) was 363. The “Axoprotection of optic nerves compared to the vehicle group” value (optic nerve axons; 60 mg/kg) was 74%, the “Loss of optic nerve axons vs. control eye (difference)” value (optic nerve axons; 60 mg/kg daily oral, p = 0.002) was 7.6% and the “Number of optic nerve axons, mean” value (optic nerve axons; 60 mg/kg, control eye) was 395. The “Number of optic nerve axons, mean” value (optic nerve axons; 60 mg/kg, lasered eye) was 365, the “Loss of RBPMS-positive RGCs, lasered vs control eye (difference)” value (shortened to “Loss of RBPMS-positive RGCs … (difference)”) ([4]; 3 mg/kg daily oral) was 5.2% and the “Number of RGCs per retinal area, mean” value ([4]; 3 mg/kg, control eye) was 1404. For the same compound, the “Number of RGCs per retinal area, mean” value ([4]; 3 mg/kg, lasered eye) was 1315, the “Loss of RBPMS-positive RGCs … (difference)” value ([4]; 30 mg/kg daily oral) was 7.7% and the “Number of RGCs per retinal area, mean” value ([4]; 30 mg/kg, control eye) was 1444. For the same compound, the “Number of RGCs per retinal area, mean” value ([4]; 30 mg/kg, lasered eye) was 1336, the “Loss of RBPMS-positive RGCs … (difference)” value ([4]; 60 mg/kg daily oral) was 13.9% and the “Number of RGCs per retinal area, mean” value ([4]; 60 mg/kg, control eye) was 1417. The “Number of RGCs per retinal area, mean” value ([4]; 60 mg/kg, lasered eye) was 1198, the “H2O2-induced reduction of MMP (TMRE)” value (human lymphoblasts [5]; S1R genetically silenced with siRNA) was “unable to rescue MMP” and the “H2O2-induced reduction of MMP (TMRE)” value (human lymphoblasts [5]; S1R-expressing cells, p = 0.0002) was “rescues this effect”. For the same compound, the “Mitochondrial membrane potential (MMP) after NMDA plus glycine” value (striatal neurons) was “rescues the decrease in MMP” and the “MMP in isolated mitochondria from treated mice” value [6] was “increase in MMP”.

For COc1ccc(CCN2CCN(CCCc3ccccc3)CC2)cc1OC [SA4503, cutamesine dihydrochloride, reference compound], the Ki (S1R) is listed as 17.4 nM and the Ki [7] is listed as 1.72 nM.
